# Assay results published in ChEMBL document CHEMBL5729382, “Inhibitors of cysteine proteases and methods of use thereof” (2022).
# Assay: Evaluation of Antiviral Activity of Compounds Against Human Coronavirus (HCov) 229E: Compounds were assayed using standard methods against multiple coronaviral strains, including HCoV 229E and OC43 strains. […] The antiviral activity of compounds was calculated based on the protection of the virus-induced CPE at each concentration normalized by the virus control.
smiles,measurement,value
"N#CC1(NC(=O)[C@@H](CC2CC2)NC(=O)OCc2ccccc2)C[C@H]2CC[C@@H]1[C@H]1C(=O)NC(=O)[C@@H]21 (single isomer, unassigned; isomer 1)",IC50,> 30 µM
"COc1cccc2[nH]c(C(=O)N[C@H](CC3CC3)C(=O)N[C@@]3(C#N)CC4CCC3[C@H]3C(=O)NC(=O)[C@@H]43)cc12 (single isomer, unassigned; isomer 1)",IC50,> 30 µM
